Experimental data: PMC6535718 (Journal of the American Chemical Society, 2019)
Where two headings read alike, the source gives them in different places.

How the values were obtained:
P. aeruginosa PAO1 = assay: Effect of analogs on the potency of fluoroquinolone antibiotics, strain PAO1; assay type: cell-based, Pseudomonas aeruginosa; conditions: PAO1, ciprofloxacin 0.25 μg/mL, 18 h, M63 + 4 μM Fe
P. aeruginosa = conditions: cited from earlier work
[1] = fluoroquinolone at the reported MIC, Figure 9 legend

Structure (SMILES) | % survival relative to untreated control, ciprofloxacin only (P. aeruginosa PAO1) | reported MIC (P. aeruginosa) | reported MIC (P. aeruginosa; [1])
O=C(O)c1cn(C2CC2)c2cc(N3CCNCC3)c(F)cc2c1=O [ciprofloxacin] | approximately 10% | 0.25 µg/mL | –
CCn1cc(C(=O)O)c(=O)c2cc(F)c(N3CCNCC3)cc21 [norfloxacin] | – | – | 0.9 µg/mL
C[C@H]1COc2c(N3CCN(C)CC3)c(F)cc3c(=O)c(C(=O)O)cn1c23 [levofloxacin] | – | – | 0.5 µg/mL
